Assay results published in patent US6617326B2 (dated 2003).

SMILES | melting point
CC(C)(O)c1cnn2c(-c3cccc(-c4ccc(F)cc4C#N)c3)cnc2n1 | 175 °C
CC(C)(F)c1cnn2c(-c3ccc(F)c(-c4ccc(F)cc4C#N)c3)cnc2n1 | 156 to 159 °C
CC(C)(O)c1cnn2c(-c3ccc(F)c(-c4ccc(F)cc4C#N)c3)cnc2n1 | 215 °C
N#Cc1ccc(F)cc1-c1cc(-c2cnc3nc(C(F)(F)F)cnn23)ccc1F | 200 to 201 °C
